In ChEMBL document CHEMBL3808387, “Discovery of IWP-051, a Novel Orally Bioavailable sGC Stimulator with Once-Daily Dosing Potential in Humans” (ACS Med Chem Lett, 2016):

Tests used:
[1] = molecular target: Soluble guanylate cyclase (Homo sapiens) (UniProt Q02153+O75343+P33402+Q02108); experiment: Activation of SGC in HEK293 cells assessed as cGMP production at 30 uM after 20 mins by LC-MS/MS analysis in presence of NO-donor DETA-NONOate; format: cell-based
[2] = Intrinsic clearance in Sprague-Dawley rat liver microsomes assessed per mg of protein at 2 uM after 10 to 30 mins by LC/MS/MS analysis in presence of NADPH; format: ADME; settings: read-out: CLH
[3] = Intrinsic clearance in human liver microsomes assessed per mg of protein at 2 uM after 10 to 30 mins by LC/MS/MS analysis in presence of NADPH; format: ADME; settings: read-out: CLH
[4] = molecular target: Soluble guanylate cyclase (Homo sapiens, UniProt O75343+P33402+Q02108+Q02153); experiment: Activation of SGC in HEK293 cells assessed as cGMP production after 20 mins by LC-MS/MS analysis in presence of NO-donor DETA-NONOate; format: cell-based
[5] = Terminal half-life in Sprague-Dawley rat at 1 mg/kg, iv by LC-MS/MS analysis; format: ADME, organism-based; settings: in vivo, read-out: beta t1/2
[6] = Oral bioavailability in Sprague-Dawley rat at 10 mg/kg by LC-MS/MS analysis; format: ADME, organism-based; settings: in vivo
[7] = molecular target: T1, Kappa-type opioid receptor (Homo sapiens, UniProt P41145); experiment: Agonist activity at KOP receptor (unknown origin)
[8] = molecular target: T1, Kappa-type opioid receptor; experiment: Binding affinity to KOP receptor (unknown origin)

Soluble guanylate cyclase, sequence (Q02153 whole entry): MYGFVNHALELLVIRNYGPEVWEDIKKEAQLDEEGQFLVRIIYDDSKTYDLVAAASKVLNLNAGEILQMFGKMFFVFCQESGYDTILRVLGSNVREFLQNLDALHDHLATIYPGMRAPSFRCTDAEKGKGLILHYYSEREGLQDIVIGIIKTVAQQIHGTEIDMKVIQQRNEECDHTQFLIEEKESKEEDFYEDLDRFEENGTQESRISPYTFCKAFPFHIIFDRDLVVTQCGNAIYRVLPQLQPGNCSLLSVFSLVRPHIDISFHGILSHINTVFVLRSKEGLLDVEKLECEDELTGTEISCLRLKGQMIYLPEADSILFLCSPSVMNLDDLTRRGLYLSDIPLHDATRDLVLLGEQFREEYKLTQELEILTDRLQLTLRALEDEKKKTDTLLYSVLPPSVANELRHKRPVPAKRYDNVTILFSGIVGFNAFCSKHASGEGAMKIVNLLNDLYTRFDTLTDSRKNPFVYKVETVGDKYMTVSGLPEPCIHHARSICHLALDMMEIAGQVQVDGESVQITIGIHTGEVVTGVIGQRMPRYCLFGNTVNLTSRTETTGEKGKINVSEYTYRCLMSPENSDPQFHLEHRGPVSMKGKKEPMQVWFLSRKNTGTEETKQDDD
Soluble guanylate cyclase, sequence (O75343 whole entry): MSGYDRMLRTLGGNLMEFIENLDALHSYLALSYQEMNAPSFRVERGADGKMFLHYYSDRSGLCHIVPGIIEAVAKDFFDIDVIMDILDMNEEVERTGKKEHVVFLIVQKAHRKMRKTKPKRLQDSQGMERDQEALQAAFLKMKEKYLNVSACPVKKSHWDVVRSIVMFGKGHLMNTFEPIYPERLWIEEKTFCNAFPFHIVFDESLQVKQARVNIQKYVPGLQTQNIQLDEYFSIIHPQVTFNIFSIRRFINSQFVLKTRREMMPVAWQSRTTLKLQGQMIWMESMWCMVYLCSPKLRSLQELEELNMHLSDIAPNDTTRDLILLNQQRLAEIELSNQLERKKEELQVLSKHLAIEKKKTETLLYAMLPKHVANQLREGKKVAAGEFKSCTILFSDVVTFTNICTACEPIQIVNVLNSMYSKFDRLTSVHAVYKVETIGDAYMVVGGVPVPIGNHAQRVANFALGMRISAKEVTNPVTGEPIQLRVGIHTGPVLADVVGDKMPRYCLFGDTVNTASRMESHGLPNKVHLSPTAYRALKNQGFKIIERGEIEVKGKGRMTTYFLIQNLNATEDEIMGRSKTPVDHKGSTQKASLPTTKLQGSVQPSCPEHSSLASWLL
Soluble guanylate cyclase, sequence (P33402 whole entry): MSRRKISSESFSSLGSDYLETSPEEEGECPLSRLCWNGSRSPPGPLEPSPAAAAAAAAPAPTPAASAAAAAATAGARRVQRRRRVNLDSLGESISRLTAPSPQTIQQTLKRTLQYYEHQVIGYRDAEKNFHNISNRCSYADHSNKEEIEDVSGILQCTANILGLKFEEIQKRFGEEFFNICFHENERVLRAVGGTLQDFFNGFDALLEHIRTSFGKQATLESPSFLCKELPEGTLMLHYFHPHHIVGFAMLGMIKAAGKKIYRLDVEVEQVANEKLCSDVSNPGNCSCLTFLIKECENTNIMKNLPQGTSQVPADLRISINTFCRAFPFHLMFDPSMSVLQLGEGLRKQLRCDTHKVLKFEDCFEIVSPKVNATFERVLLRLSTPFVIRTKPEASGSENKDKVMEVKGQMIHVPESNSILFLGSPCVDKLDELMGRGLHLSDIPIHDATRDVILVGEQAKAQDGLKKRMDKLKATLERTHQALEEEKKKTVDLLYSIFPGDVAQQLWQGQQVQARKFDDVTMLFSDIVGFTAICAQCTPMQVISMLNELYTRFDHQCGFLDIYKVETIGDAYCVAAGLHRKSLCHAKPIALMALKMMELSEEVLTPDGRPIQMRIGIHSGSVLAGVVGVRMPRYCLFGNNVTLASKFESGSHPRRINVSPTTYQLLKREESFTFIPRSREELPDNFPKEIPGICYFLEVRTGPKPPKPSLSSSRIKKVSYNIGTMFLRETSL
Soluble guanylate cyclase, sequence (Q02108 whole entry): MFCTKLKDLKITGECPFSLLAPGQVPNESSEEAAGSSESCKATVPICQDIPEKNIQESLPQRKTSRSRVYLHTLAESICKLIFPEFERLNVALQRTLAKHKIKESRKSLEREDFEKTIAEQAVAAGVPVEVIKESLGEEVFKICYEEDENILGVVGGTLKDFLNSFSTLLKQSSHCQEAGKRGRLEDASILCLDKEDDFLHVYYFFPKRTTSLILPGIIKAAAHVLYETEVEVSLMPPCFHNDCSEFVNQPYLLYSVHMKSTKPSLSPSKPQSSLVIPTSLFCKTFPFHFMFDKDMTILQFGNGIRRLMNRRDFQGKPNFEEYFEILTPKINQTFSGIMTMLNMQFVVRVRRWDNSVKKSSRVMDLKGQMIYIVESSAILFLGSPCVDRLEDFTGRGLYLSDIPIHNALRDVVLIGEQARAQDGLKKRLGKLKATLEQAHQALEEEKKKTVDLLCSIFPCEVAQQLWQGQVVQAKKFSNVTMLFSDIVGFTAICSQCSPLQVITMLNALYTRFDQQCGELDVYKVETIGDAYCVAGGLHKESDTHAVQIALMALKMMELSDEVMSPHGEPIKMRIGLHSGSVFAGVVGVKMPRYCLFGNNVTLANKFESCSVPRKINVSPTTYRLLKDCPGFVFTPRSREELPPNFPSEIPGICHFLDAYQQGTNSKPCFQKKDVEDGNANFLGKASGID
T1 sequence (P41145 whole entry): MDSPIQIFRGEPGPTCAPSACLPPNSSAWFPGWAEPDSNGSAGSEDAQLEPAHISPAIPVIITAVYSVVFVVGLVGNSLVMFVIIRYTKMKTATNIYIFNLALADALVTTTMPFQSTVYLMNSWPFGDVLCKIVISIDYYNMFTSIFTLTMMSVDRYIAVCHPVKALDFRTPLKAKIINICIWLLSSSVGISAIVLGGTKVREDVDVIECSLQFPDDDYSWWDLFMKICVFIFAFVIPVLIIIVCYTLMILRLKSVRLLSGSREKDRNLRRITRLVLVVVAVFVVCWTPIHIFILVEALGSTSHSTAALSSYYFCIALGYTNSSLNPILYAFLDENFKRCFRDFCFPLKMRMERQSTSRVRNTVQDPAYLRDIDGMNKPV

| Compound | Emax [1] [%] | microsomal CLint at 2 µM [2] [µL/min/mg] | microsomal CLint at 2 µM [3] [µL/min/mg] | EC50 [4] [nM] | half-life [5] [min] | bioavailability [6] [%] | EC50 [7] [nM] | IC50 [8] [nM] |
| --- | --- | --- | --- | --- | --- | --- | --- | --- |
| Cc1nc(-c2cc(-c3ccon3)n(Cc3ccccc3F)n2)nc(O)c1F | 70 | 16 | 9 |  |  |  |  |  |
| N#Cc1cc(-c2ncc(F)c(=O)[nH]2)nn1Cc1ccccc1F |  | 9 | 7 |  |  |  |  |  |
| Oc1nc(-c2cc(-c3ccon3)n(CCC(F)(F)F)n2)ncc1F |  | 32 | 23 |  |  |  |  |  |
| Cc1cccc(Cn2nc(-c3ncc(F)c(O)n3)cc2-c2ccon2)c1F |  | 79 | 8 | 240 |  |  |  |  |
| O=c1[nH]c(-c2cc(-c3ccon3)n(CCC(F)(F)C(F)(F)F)n2)ncc1F |  | 4 | 6 | 1500 |  |  |  |  |
| Oc1nc(-c2cc(-c3ccon3)n(Cc3ccccc3F)n2)ncc1Cl |  | 5 | 7 | 590 |  |  |  |  |
| Oc1nc(-c2cc(-c3ccon3)n(Cc3cccc(F)c3F)n2)ncc1F |  | 3 | 7 | 370 |  |  |  |  |
| Cc1cc(-c2cc(-c3ncc(F)c(O)n3)nn2Cc2ccccc2F)no1 | 23 | 249 | 118 |  |  |  |  |  |
| Oc1nc(-c2cc(-c3ncco3)n(Cc3ccccc3F)n2)ncc1F |  | 68 | 42 | 1500 |  |  |  |  |
| Oc1nc(-c2cc(-c3ccon3)n(Cc3sccc3F)n2)ncc1F |  | 13 | 11 | 280 |  |  |  |  |
| Oc1ccnc(-c2cc(-c3ccon3)n(Cc3ccccc3F)n2)n1 | 92 | 15 | 12 |  |  |  |  |  |
| CC(C)(O)c1cnc(-c2cc(-c3ccon3)n(Cc3ccccc3F)n2)nc1O | 40 | 8 | 8 |  |  |  |  |  |
| O=c1[nH]c(-c2cc(-c3ccsn3)n(Cc3ccccc3F)n2)ncc1F |  | 129 | 169 | 180 |  |  |  |  |
| O=C(Nc1cnc(-c2cc(-c3ccon3)n(Cc3ccccc3F)n2)nc1O)c1ccccc1 | 53 | 26 | 14 |  |  |  |  |  |
| CN(c1ccccc1)S(=O)(=O)c1cnc(-c2cc(-c3ccon3)n(Cc3ccccc3F)n2)nc1O |  | 58 | 179 | 730 |  |  |  |  |
| Nc1ccnc(-c2cc(-c3ccon3)n(Cc3ccccc3F)n2)n1 |  | 26 | 10 | 240 | 26 | 53 | 1500 | 1200 |
| CS(=O)(=O)c1cnc(-c2cc(-c3ccon3)n(Cc3ccccc3F)n2)nc1O |  | 13 | 15 | 900 |  |  |  |  |
